Read-outs that look alike come from different tables or passages of the source.
Test system: barnyardgrass (Echinochloa oryzicola vasing)
Experiment: Growth inhibition of barnyardgrass in paddy soil pots, application under submerged condition, visual rating (observed value) and Colby expected value
Format: in vivo
Details: for inhibition at 51 g/ha: 0.51 g/a; for inhibition at 7.9 g/ha: 0.079 g/a; for inhibition at 15.8 g/ha: 0.158 g/a; for inhibition at 50 g/ha: 0.5 g/a; for inhibition at 112.5 g/ha: 1.125 g/a; for inhibition at 225 g/ha: 2.25 g/a
From the text: When the herbicidal activity in a case where two active ingredients are combined, is larger than the simple sum of the respective herbicidal activities of the two active ingredients (the expected activity), it is called a synergistic effect. The activity expected by the combination of two active ingredients can be calculated as follows (Colby S. R., “Weed”, vol. 15, p. 20-22, 1967). E=p+q−(p×q÷100) where p: growth inhibition rate when treated with x (g/a) of herbicide X,
q: growth inhibition rate when treated with y (g/a) of herbicide Y,
E: growth inhibition rate expected when treated with x (g/a) of herbicide X and y (g/a) of herbicide Y.
Namely, when the actual growth inhibition rate (observed value) is larger than the growth inhibition rate by the above calculation (expected value), the activity by the combination can be regarded as showing a synergistic effect.
Paddy field soil was put into a 1/10,000 are pot, and seeds of barnyardgrass (Echinochloa oryzicola vasing) were sown and left to stand under an irrigated condition with a water depth of 3.5 cm. When barnyardgrass reached 2.0 to 2.5 leaf stage, wettable powders of compound A2 and compound (B1.1) were, respectively, diluted with water and applied under submerged condition so that the active ingredients became the prescribed amounts, respectively. The state of growth was visually observed 21 days after application, and the growth inhibition rate (%) evaluated in accordance with the following evaluation standard (observed value) and the growth inhibition rate (%) calculated by the above-mentioned Colby method (expected value) are shown in Table 1.
Growth inhibition rate (%)=0% (equivalent to the non-treated area) to 100% (complete kill)
(§1) Paddy field soil was put into a 1/10,000 are pot, and seeds of barnyardgrass (Echinochloa oryzicola vasing) were sown and left to stand under an irrigated condition with a water depth of 3.5 cm. When barnyardgrass reached 2.0 to 2.5 leaf stage, wettable powders of compound A2 and compound (B2.1) were, respectively, diluted with water and applied under submerged condition so that the active ingredients became the prescribed amounts, respectively. The state of growth was visually observed 21 days after application, and evaluation and calculation were carried out in the same manner as in the above Test Example 1.
as §1, with “leaf stage, a wettable powder” for “leaf stage, wettable powders”, “a wettable powder of compound” for “stage, wettable powders of compound”, “A2 and an emulsifiable concentrate of compound (B3.1)” for “A2 and compound (B2.1)”, “of compound (B3.1) were, respectively,” for “and compound (B2.1) were, respectively,”
as §1, with “(B4.1)” for “(B2.1)”
Paddy field soil was put into a 1/10,000 are pot, and seeds of barnyardgrass (Echinochloa oryzicola vasing) were sown and left to stand under an irrigated condition with a water depth of 3.5 cm. […]

[1] = Echinochloa oryzicola, soil, 336 h, 2.8 to 3.4 leaf stage, 14 days after application, Test Examples 66-72, read-out: Growth inhibition rate (%) Observed
[2] = Echinochloa oryzicola, soil, 504 h, 2.0 to 2.5 leaf stage, 21 days after application, read-out: Growth inhibition rate (%) Observed
[3] = Echinochloa oryzicola, soil, 504 h, 3.0 to 3.3 leaf stage, 21 days after application, read-out: Growth inhibition rate (%) Observed
[4] = Echinochloa oryzicola, soil, 528 h, 2.5 to 3.0 leaf stage, 22 days after application, read-out: Growth inhibition rate (%) Observed
[5] = Echinochloa oryzicola, soil, 528 h, 2.1 to 3.2 leaf stage, 22 days after application, read-out: Growth inhibition rate (%) Observed

## COC(=O)c1ccccc1CS(=O)(=O)NC(=O)Nc1nc(OC)cc(OC)n1 [Compound (B1.1), bensulfuron-methyl]
Echinochloa oryzicola, soil, 336 h, 0.255 g/a, 2.8 to 3.4 leaf stage, 14 days after application, Test Examples 66-72, read-out: Growth inhibition rate (%) Observed
  inhibition at 25.5 g/ha: 30%
[1]
  inhibition at 51 g/ha: 45%
Echinochloa oryzicola, soil, 504 h, 0.26 g/a, 2.0 to 2.5 leaf stage, 21 days after application, read-out: Growth inhibition rate (%) Observed
  inhibition at 26 g/ha: 47%
[2]
  inhibition at 51 g/ha: 57%

## CCOC(=O)c1cnn(C)c1S(=O)(=O)NC(=O)Nc1nc(OC)cc(OC)n1 [Compound (B1.3), pyrazosulfuron-ethyl]
[3]
  inhibition at 7.9 g/ha: 20%
  inhibition at 15.8 g/ha: 37%
[4]
  inhibition at 7.9 g/ha: 50%
  inhibition at 15.8 g/ha: 70%

## COc1cc(OC)nc(NC(=O)NS(=O)(=O)c2c(Cl)nc3ccccn23)n1 [Compound (B1.4), imazosulfuron]
Echinochloa oryzicola, soil, 336 h, 0.45 g/a, 2.8 to 3.4 leaf stage, 14 days after application, Test Examples 66-72, read-out: Growth inhibition rate (%) Observed
  inhibition at 45 g/ha: 25%
Echinochloa oryzicola, soil, 336 h, 0.9 g/a, 2.8 to 3.4 leaf stage, 14 days after application, Test Examples 66-72, read-out: Growth inhibition rate (%) Observed
  inhibition at 90 g/ha: 40%
Echinochloa oryzicola, soil, 528 h, 0.338 g/a, 2.5 to 3.0 leaf stage, 22 days after application, read-out: Growth inhibition rate (%) Observed
  inhibition at 33.8 g/ha: 53%
Echinochloa oryzicola, soil, 528 h, 0.675 g/a, 2.5 to 3.0 leaf stage, 22 days after application, read-out: Growth inhibition rate (%) Observed
  inhibition at 67.5 g/ha: 57%

## CCOc1ccccc1OS(=O)(=O)NC(=O)Nc1nc(OC)cc(OC)n1 [Compound (B1.5), ethoxysulfuron]
Echinochloa oryzicola, soil, 336 h, 0.105 g/a, 2.8 to 3.4 leaf stage, 14 days after application, Test Examples 66-72, read-out: Growth inhibition rate (%) Observed
  inhibition at 10.5 g/ha: 10%
Echinochloa oryzicola, soil, 336 h, 0.21 g/a, 2.8 to 3.4 leaf stage, 14 days after application, Test Examples 66-72, read-out: Growth inhibition rate (%) Observed
  inhibition at 21 g/ha: 20%
[4]
  inhibition at 7.9 g/ha: 0%
  inhibition at 15.8 g/ha: 3%

## COC(=O)c1c(Cl)nn(C)c1S(=O)(=O)NC(=O)Nc1nc(OC)cc(OC)n1 [Compound (B1.6), halosulfuron-methyl]
Echinochloa oryzicola, soil, 456 h, read-out: Growth inhibition rate (%) Observed, 0.3 g/a, 2.8 to 3.2 leaf stage, 19 days after application, Test Examples 62-65
  inhibition at 30 g/ha: 25%
Echinochloa oryzicola, soil, 456 h, read-out: Growth inhibition rate (%) Observed, 0.6 g/a, 2.8 to 3.2 leaf stage, 19 days after application, Test Examples 62-65
  inhibition at 60 g/ha: 40%

## CO/N=C(\C)c1cccc(Oc2nc(OC)cc(OC)n2)c1C(=O)OC [Compound (B2.1), pyriminobac-methyl]
Echinochloa oryzicola, soil, 336 h, read-out: Growth inhibition rate (%) Observed, 0.9 g/a, 2.8 to 3.4 leaf stage, 14 days after application, Test Examples 66-72
  inhibition at 90 g/ha: 60%
Echinochloa oryzicola, soil, 504 h, read-out: Growth inhibition rate (%) Observed, 0.225 g/a, 2.0 to 2.5 leaf stage, 21 days after application
  inhibition at 22.5 g/ha: 60%
Echinochloa oryzicola, soil, 504 h, read-out: Growth inhibition rate (%) Observed, 0.45 g/a, 2.0 to 2.5 leaf stage, 21 days after application
  inhibition at 45 g/ha: 80%

## COCc1cccc(C(O)c2nc(OC)cc(OC)n2)c1NS(=O)(=O)C(F)F (stereo not drawn) [Compound (B2.2), KUH-021]
0.25 g/a, 2.8 to 3.2 leaf stage, 21 days after application, Test Examples 39-43
  Growth inhibition rate (%) Observed: 60%
0.335 g/a, 2.8 to 3.2 leaf stage, 21 days after application, Test Examples 39-43
  Growth inhibition rate (%) Observed: 68%

## CS(=O)(=O)c1ccc(C(=O)C2C(=O)CCCC2=O)c([N+](=O)[O-])c1 [Compound (B4.2), mesotrione]
Echinochloa oryzicola, soil, 336 h, 0.25 g/a, 2.8 to 3.4 leaf stage, 14 days after application, Test Examples 66-72, read-out: Growth inhibition rate (%) Observed
  inhibition at 25 g/ha: 0%
[1]
  inhibition at 50 g/ha: 0%
Echinochloa oryzicola, soil, 504 h, 0.25 g/a, 2.0 to 2.5 leaf stage, 21 days after application, read-out: Growth inhibition rate (%) Observed
  inhibition at 25 g/ha: 0%
[2]
  inhibition at 50 g/ha: 0%

## Cc1nn(C)c(OCC(=O)c2ccccc2)c1C(=O)c1ccc(Cl)cc1Cl [Compound (B4.3), pyrazoxyfen]
5.63 g/a, 2.5 to 3.0 leaf stage, 22 days after application
  Growth inhibition rate (%) Observed: 0%
11.25 g/a, 2.5 to 3.0 leaf stage, 22 days after application
  Growth inhibition rate (%) Observed: 10%

## CS(=O)(=O)c1ccc(C(=O)C2C(=O)CCCC2=O)c(Cl)c1COCC1CCCO1 (stereo not drawn) [Compound (B4.4), AVH-301]
[1]
  inhibition at 112.5 g/ha: 0%
  inhibition at 225 g/ha: 0%
[5]
  inhibition at 112.5 g/ha: 13%
  inhibition at 225 g/ha: 13%

## Cc1ccc(S(=O)(=O)Oc2c(C(=O)c3ccc(Cl)cc3Cl)c(C)nn2C)cc1 [Compound (B4.5), pyrazolynate]
Echinochloa oryzicola, soil, 456 h, 5 g/a, 2.8 to 3.2 leaf stage, 19 days after application, Test Examples 62-65, read-out: Growth inhibition rate (%) Observed
  inhibition at 500 g/ha: 0%
Echinochloa oryzicola, soil, 456 h, 10 g/a, 2.8 to 3.2 leaf stage, 19 days after application, Test Examples 62-65, read-out: Growth inhibition rate (%) Observed
  inhibition at 1000 g/ha: 0%

## Cc1ccc(C(=O)COc2c(C(=O)c3ccc(Cl)c(C)c3Cl)c(C)nn2C)cc1 [Compound (B4.6), benzofenap]
5 g/a, 2.8 to 3.2 leaf stage, 19 days after application, Test Examples 62-65
  Growth inhibition rate (%) Observed: 0%
10 g/a, 2.8 to 3.2 leaf stage, 19 days after application, Test Examples 62-65
  Growth inhibition rate (%) Observed: 0%

## CC(C)(NC(=O)NCc1ccccc1Cl)c1ccccc1 [Compound (B6.2), cumyluron]
Echinochloa oryzicola, soil, 504 h, 7.5 g/a, 2.0 to 2.5 leaf stage, 21 days after application, read-out: Growth inhibition rate (%) Observed
  inhibition at 750 g/ha: 3%
Echinochloa oryzicola, soil, 504 h, 15 g/a, 2.0 to 2.5 leaf stage, 21 days after application, read-out: Growth inhibition rate (%) Observed
  inhibition at 1500 g/ha: 3%

Source: patent US20070232492A1, “Herbicidal Composition” (Ishihara Sangyo Kaisha, LTD., priority 2004, published 2007)
